Test results published in patent publication US8138188B2, “Melanocortin type 4 receptor agonist piperidinoylpyrrolidines” (Pfizer Inc., priority 2006, dated 2012).

The compounds below were run against T1, MC3 receptor (MC3R) (Homo sapiens, UniProt P41968) (assay: Nle4, D-Phe7-α-MSH inhibition at the MC3 receptor (SPA competition binding)). Details: vs 0.06 nM Nle4, D-Phe7-α-MSH, CHO-CRE MC3R cell membranes.
T1 construct: expressed in transfected cells; host or cells: CHO-CRE MC3R cells (membranes)
T1 sequence (P41968 whole entry): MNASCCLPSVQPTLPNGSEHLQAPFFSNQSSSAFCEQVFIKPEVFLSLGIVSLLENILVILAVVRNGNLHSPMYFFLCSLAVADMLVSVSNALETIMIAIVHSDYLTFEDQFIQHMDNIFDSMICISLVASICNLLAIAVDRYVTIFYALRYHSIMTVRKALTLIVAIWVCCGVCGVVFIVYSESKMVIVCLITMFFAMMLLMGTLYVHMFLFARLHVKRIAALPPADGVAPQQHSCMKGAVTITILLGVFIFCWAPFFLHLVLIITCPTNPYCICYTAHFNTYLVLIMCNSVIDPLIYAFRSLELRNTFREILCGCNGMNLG
Excerpt: Nle4, D-Phe7-α-MSH Inhibition at the MC3 Receptor
Nle4, D-Phe7-α-MSH is a stable analogue of melanocyte-stimulating hormone (MSH), which is an agonist at the MC3 receptor (MC3R). Compounds can be evaluated for their ability to inhibit Nle4, D-Phe7-α-MSH binding to membranes from cells expressing the MC3R using a competition binding assay versus [^125I] Nle4, D-Phe7-α-MSH.
Cells expressing the MC3R were subject to homogenisation and the membrane fragment isolated by differential centrifugation. CHO-CRE MC3R cell membranes were coupled to PVT-PEI-WGA SPA Beads type A for 2 hours, spun at 1000 RPM for 5 mins and suspended to a final assay concentration of 800 ug bead/ml (1.2 ug membrane, 40 ug bead per well). Bead/membrane mix was incubated with 0.06 nM Nle4, D-Phe7-α-MSH and 11 half-log concentrations of competitor ligand, in duplicate, in a total volume of 50 μl buffer per well (25 mM HEPES, 1 mM MgCl2, 2.5 mM CaCl2, 1% Pluronic F68, 1 complete EDTA protease inhibitor tablet/50 ml pH7).
Non-specific binding was determined by the inclusion of 100 nM SHU9119. The reaction was initiated by the addition of bead/membranes and plates were incubated at room temperature for 12 hours (the first hour on a plate shaker), after which the amount of radioactivity present was determined using a Wallac plate counter. Ki values were determined by data analysis using appropriate software.

| SMILES | Ki |
| --- | --- |
| C[C@@H]1CN(C(=O)[C@@H]2CN(c3ccc(C#N)nn3)C[C@H]2c2ccc(Cl)cn2)C[C@H](C)[C@@]1(O)c1ccc(F)cc1 [Example 2, 6-[(3S,4S)-3-(5-Chloropyridin-2-yl)-4-{[(3R,4R,5S)-4-(4-fluorophenyl)-4-hydroxy-3,5-dimethylpiperidin-1-yl]carbonyl}pyrrolidin-1-yl]pyridazine-3-carbonitrile] | 124 nM |
| C[C@@H]1CN(C(=O)[C@@H]2CN(c3ccc(=O)n(C)n3)C[C@H]2c2ccc(Cl)cn2)C[C@H](C)[C@@]1(O)c1ccc(Cl)cn1 [Example 10] | 977 nM |
| C[C@@H]1CN(C(=O)[C@@H]2CN(c3ccc(=O)n(C)n3)C[C@H]2c2ccc(Cl)cn2)C[C@H](C)[C@@]1(O)C1CCCCC1 [Example 17] | 332 nM |
| CC1CN(C(=O)C2CN(c3ccc(=O)n(C)n3)CC2c2ccc(Cl)cn2)CC(C)C1(O)c1ccc(F)c(F)c1 (centres unmarked) [Example 19] | 568 nM |
| COc1ccc(C2(O)C(C)CN(C(=O)C3CN(c4ccc(=O)n(C)n4)CC3c3ccc(Cl)cn3)CC2C)cc1 (centres unmarked) [Example 20] | 1020 nM |
| C[C@@H]1CN(C(=O)[C@@H]2CN(c3ccc(=O)n(C)n3)C[C@H]2c2ccc(Cl)cn2)C[C@H](C)[C@@]1(O)c1ccccn1 [Example 22] | 5560 nM |
| CC1CN(C(=O)C2CN(c3ccc(=O)n(C)n3)CC2c2ccc(Cl)cn2)CC(C)C1(O)c1ccc(Cl)cc1 (centres unmarked) [Example 23] | 264 nM |
| CC1CN(C(=O)C2CN(c3cncc(F)c3)CC2c2ccc(Cl)cn2)CC(C)C1(O)c1ccc(F)cc1 (centres unmarked) [Example 25] | < 0.105 nM |
| C[C@@H]1CN(C(=O)[C@@H]2CN(c3ccc(=O)[nH]n3)C[C@H]2c2ccc(Cl)cn2)C[C@H](C)[C@@]1(O)c1ccccn1 [Example 28] | 1670 nM |
| C[C@@H]1CN(C(=O)[C@@H]2CN(c3ccc(C#N)nn3)C[C@H]2c2ccc(F)cn2)C[C@H](C)[C@@]1(O)c1ccc(Cl)cc1 [Example 32] | 456 nM |
| C[C@@H]1CN(C(=O)[C@@H]2CN(c3ccc(C#N)nn3)C[C@H]2c2ccc(C#N)cn2)C[C@H](C)[C@@]1(O)c1ccc(F)cc1 [Example 46] | 551 nM |
